For test [1], the target named is Aldo-keto reductase family 1 member B1 (Homo sapiens, UniProt P15121). The experiment in a line: Inhibition of cataracted human eye lens aldose reductase.
The subject of test [2] is Radical scavenging activity. The experiment in a line: Antioxidant activity assessed as DPPH radical scavenging activity after 20 mins. It counts as functional.

Converted amounts (≈) assume the structure as drawn.

Regarding `O=C(O)/C=C/c1ccccc1` [CINNAMIC ACID], the values for the IC50 in test [1] and in test [2] were 460 µM and 96.7 µg/mL (≈ 653 µM), respectively.

On to `O=C(O)/C=C/c1ccc(O)cc1` [COUMARIC ACID], for which the IC50 (usually the midpoint of a concentration-inhibition curve) in test [1] was 989 µM; in test [2], 112.01 µg/mL (≈ 682 µM).

`COc1cc(/C=C/C(=O)O)ccc1O` [FERULATE]: the IC50 in test [2] was 189.1 µg/mL (≈ 974 µM).

On to `O=C(O)c1cc(O)c(O)c(O)c1` [GALLIC ACID], for which the IC50 is 572 µM in test [1] and 26.9 µg/mL (≈ 158 µM) in test [2].

On to `O=C(O)c1ccc(O)cc1` [PARABEN], for which the IC50 in test [2] came out at 183.7 µg/mL (≈ 1330 µM).

With `O=C(O)c1ccc(O)c(O)c1` [PROTOCATECHUIC ACID], the IC50 in test [1] is 277 µM; in test [2] it was 77.63 µg/mL (≈ 504 µM).

As for `O=c1c(O)c(-c2ccc(O)c(O)c2)oc2cc(O)cc(O)c12` [QUERCETIN], in test [2], the IC50 worked out at 56.8 µg/mL (≈ 188 µM).

Regarding `COc1cc(C(=O)O)cc(OC)c1O` [SYRINGIC ACID], the figures for the IC50 in test [1] and in test [2] were 868 µM and 155.6 µg/mL (≈ 785 µM), respectively.

For the compound `COc1cc(C(=O)O)ccc1O` [VANILLIC ACID], in test [2], the IC50 stood at 176.5 µg/mL (≈ 1050 µM).
